Results published in patent publication US5968954A, “2-aminoindan compounds as 5HT1B antagonists” (Adir et Compagnie, priority 1997, dated 1999).
Values belong to the molecule of their own block, whether it stands above or below them.

How the values were obtained:
5HT1B receptor = target: T1, 5HT1B receptor (Cavia porcellus, UniProt O08892); assay: 5-HT1B binding ([3H]-GR 125743, guinea-pig striatal membranes); conditions: [3H]-GR 125743 1 nM, guinea-pig striata membranes; pKi = -log Ki
T1 construct: After the dissection of guinea-pig brains, the extracted striata are frozen; from tissue; host or cells: guinea-pig striatum membranes
Experimental: a) Preparation of the Membranes
After the dissection of guinea-pig brains, the extracted striata are frozen and then homogenised in 20 volumes (weight/volume) of 50 mM tris-HCl (pH 7.7 at room temperature) containing 4 mM CaCl2 and 0.1% ascorbic acid, and centrifuged at 48,000 g for 25 minutes at 4° C. The supernatant is separated and the precipitate is resuspended in the same volume of buffer before being incubated at 37° C. for 15 minutes in order to extract the endogenous serotonin. Finally, the suspension is centrifuged at 48,000 g for 25 minutes at 4° C. and the precipitate is resuspended in 80 volumes of buffer that contains 10 μM pargyline. […]
The data are analysed by non-linear regression using the PRISM programme (Graphpad Software Inc., San Diego, Calif.) in order to determine the Kd values (dissocation constant of the radioligand), the Bmax values (maximum number of sites) for the saturation experiments and the IC50 values (50% inhibiting concentration) and the Hill number for the competition experiments. The inhibition constant (Ki) is calculated according to the Cheng-Prussof equation: Ki =IC50 /1+L/Kd wherein L represents the concentration of the radioligand. The results are expressed as pKi =-log Ki.

5HT1A receptor = target: T2, 5HT1A receptor (Rattus norvegicus, UniProt P19327); assay: 5HT1A binding; conditions: methods known from the literature; read-out: pKi 5HT1A receptor (converted)
T2 sequence (P19327 1-422): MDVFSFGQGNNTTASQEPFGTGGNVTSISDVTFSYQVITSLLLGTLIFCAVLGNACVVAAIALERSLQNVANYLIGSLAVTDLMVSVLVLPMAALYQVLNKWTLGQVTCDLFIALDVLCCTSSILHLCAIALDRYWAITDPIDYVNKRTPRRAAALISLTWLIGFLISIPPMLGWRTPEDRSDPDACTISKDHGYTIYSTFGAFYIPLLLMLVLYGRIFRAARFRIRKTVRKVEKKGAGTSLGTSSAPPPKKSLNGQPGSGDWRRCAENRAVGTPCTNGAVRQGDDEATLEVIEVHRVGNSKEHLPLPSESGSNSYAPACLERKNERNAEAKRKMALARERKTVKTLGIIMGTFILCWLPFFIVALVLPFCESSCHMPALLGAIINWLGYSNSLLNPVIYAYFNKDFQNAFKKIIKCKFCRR
Experimental: The 5HT1A receptor binding studies were carried out according to methods known and described in the literature (cf. S. J. Peroutka, J. Neurochem., 1986, 47, 529-40, M. J. Millan, J. Pharmacol. Exp. Ther., 1994, 268, 337-52). The results are also expressed as pKi. The compounds of the present invention have a very low affinity for the 5HT1A receptor.

[1] = test system: GR46611-induced hypothermia (prototype agonist 5HT1B) in the guinea-pig; assay: Hypothermia test in the guinea-pig; assay type: in vivo; conditions: for ΔT° C. (at 90 minutes): mean ± s.e.m., N ≥ 6
From the text: Using the hypothermia test on the guinea-pig (M. Stingle et al., J. of Pychopharmacology, 1994. 8, 14) it was possible to determine the agonist or antagonist nature of the products of the invention.
Hypothermia Test in the Guinea-Pig
The guinea-pigs are kept in batteries of three, with free access to food and water, for one week before entering the study. One hour before each experiment, the guinea-pigs are placed in individual cages with free access to water. They are put back in their respective batteries at the end of each experiment. The temperature measurements are carried out using a digital thermometer and a rectal probe. Each guinea-pig is weighed, its base body temperature is taken and then the compound of the present invention to be evaluated is injected i.p. or p.o. In the case of an agonist, the body temperature of each guinea-pig is taken every 30 minutes for 2 hours.
In the case of an antagonist, 15 minutes after its injection each guinea-pig is injected again i.p. with the prototype agonist 5HT1B : GR46611 (5 mg/kg). The temperature is then taken every 30 minutes for 2 hours.
The criterion used for evaluation is the difference in temperature at a given time in relation to the base temperature. For each dose of product and for each time (t30, t60, t90, t120) the mean and the standard error of the mean are calculated.

[2] = test system: extracellular concentration of serotonin in frontal cortex; assay: Microdialysis experiment in rats (frontal cortex, extracellular serotonin); assay type: in vivo; conditions: rat frontal cortex, M ± s.e.m.
From the text: Carried out in the frontal cortex, these tests make it possible, in the case where the products cause an increase in the release of serotonin, to envisage their use for depression, impulsive disorders and obesity. If they cause a decrease in the release of serotonin they will be beneficial in the treatment of anxiety, panic attacks, sleep problems, cognitive problems and drug abuse problems. Finally, if they produce an increase in dopamine and/or noradrenalin, they will be beneficial in the treatment of schizophrenia and, as above, in the treatment of depression and cognitive problems.
Microdialysis Experiment in Rats
The rats are anaesthetised with pentobarbital (60 mg/kg i.p.). They are placed in a Kopf stereotaxic apparatus and the cannula guide is implanted in the frontal cortex cingulum in accordance with the coordinates described as follows in the Paxinos and Watson atlas (1982): AP:+2.2, L:±0.6, DV:-0.2. The rats are placed in separate cages and are not used in dialysis until 5 days later. On the day of dialysis, the probe is slowly inserted and maintained in its position. […] Simultaneous quantification of dopamine, norepinephrine and serotonin is carried out as follows: 20 μl of dialysis samples are diluted with 20 μl of mobile phase (NaH2 PO4 : 75 mM, EDTA: 20 μM, sodium 1-decanesulphonate: 1 mM, methanol: 17.5%, triethylamine: 0.01%, pH: 5.70) and 33 μl are analysed by HPLC with an inverse phase column (Hypersil ODS 5 μm, C18, 150×4.6 mm, Thermo Separation Products, Les Ulis, France) thermostatically controlled at 45° C. and quantified by way of a coulometric detector. […]
M±s.e.m.=mean of the effect all times merged after administration of the products±standard error of the mean, and n=number of animals. The quantities of the neurotransmitters are expressed as a function of the mean of the three base values before administration of the products and are defined as 0%. […] The reversion of the decrease of the extracellular concentration of serotonin produced by GR 46611 is evaluated statistically by an analysis of variance with drugs as between factor, F (1,25)=26.5, P<0.01.

T1 sequence (O08892 whole entry): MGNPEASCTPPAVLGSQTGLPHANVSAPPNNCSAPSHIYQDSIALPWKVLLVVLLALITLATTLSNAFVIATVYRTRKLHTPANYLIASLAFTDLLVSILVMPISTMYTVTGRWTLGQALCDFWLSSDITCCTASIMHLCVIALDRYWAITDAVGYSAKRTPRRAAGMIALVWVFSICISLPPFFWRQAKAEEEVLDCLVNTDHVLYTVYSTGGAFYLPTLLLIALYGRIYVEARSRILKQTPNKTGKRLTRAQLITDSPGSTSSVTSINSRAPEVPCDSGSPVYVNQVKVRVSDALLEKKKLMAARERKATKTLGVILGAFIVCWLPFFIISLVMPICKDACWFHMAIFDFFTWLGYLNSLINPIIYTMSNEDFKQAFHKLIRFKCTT

Ki (5HT1B receptor): 3.16 nM | Ki (5HT1A receptor): 631 nM
Compound: c1cc2c(c(N3CCC(NC4Cc5cc6c(cc5C4)OCO6)CC3)c1)OCCO2 [Example 3, 1-(2,3-dihydro[1,4]benzodioxin-5-yl)-4-[N-(5,6-methylenedioxyindan-2-yl)amino]-piperidine]

Compound: c1ccc2c(c1)CC(NC1CCN(c3cccc4c3OCCO4)CC1)C2 [Example 1, 1-(2,3-dihydro[1,4]benzodioxin-5-yl)-4-[N-(indan-2-yl)amino]piperidine]
ΔT° C. (at 90 minutes) ([1]; Product of Example 1 0.04 mg/kg i.p. then GR 46611 5 mg/kg i.p.): -0.82 ± 0.30 °C | ΔT° C. (at 90 minutes) ([1]; Product of Example 1 0.16 mg/kg i.p. then GR 46611 5 mg/kg i.p.): -0.75 ± 0.22 °C | agonist or antagonist nature ([1]; hypothermia test, i.p.): acts as an antagonist | extracellular serotonin, mean effect all times merged relative to base values (0%) ([2]; Product of Example 1 10.0 mg/kg s.c. + GR 46611 10.0 mg/kg s.c. 20 minutes later): +0.7 ± 3.4% | extracellular serotonin, mean effect all times merged relative to base values (0%) ([2]; Product of Example 1 10.0 mg/kg s.c. + Vehicle): -9.5 ± 3.7%

Compound: COc1ccc(CNC(=O)C=Cc2ccc3[nH]cc(CCN(C)C)c3c2)cc1 [GR 46611, reference compound]
ΔT° C. (at 90 minutes) ([1]; Vehicle i.p. then GR 46611 5 mg/kg i.p.): -1.04 ± 0.15 °C | extracellular serotonin, mean effect all times merged relative to base values (0%) ([2]; Vehicle + GR 46611 10.0 mg/kg s.c.): -40.7 ± 2.3%
